Data as given in paper PMC8524854, “A novel dual-prodrug carried by cyclodextrin inclusion complex for the targeting treatment of colon cancer” (Journal of Nanobiotechnology, 2021).
Where two headings read alike, the source gives them in different places. Marks after values point to notes of the source that are not given here. One block for each compound: values may come before it.

Columns and labels:
[1] = In vitro release of BBA by dialysis method; type: physicochemical; conditions: during the first 24 h, PBS with 0.5% Tween 80, pH 7.4, 37 °C
Experimental: Release of BBA from BBA/CM-β-CD and BBA/FA-PEG-CM-β-CD was investigated in vitro using the dialysis method. […] At different time points (0.25, 0.5, 1, 2, 3, 4, 6, 8, 12, 48, 72 and 96 h), 1.0 mL of release medium was removed and replaced with fresh medium.

CaCo-2 cells = experiment: MTT cell-growth inhibition; type: cell-based, human; conditions: 24 h, 48 h, 72 h, 5-FU at 20 μg/mL
Experimental: (§1) CaCo-2 and SW620 cells were used as model cells to evaluate the anticancer effects in vitro. Single-cell suspension was prepared with DMEM containing 10% Gibco FBS and 1% penicillin–streptomycin. The cells were seeded in a 96-well plate (3500 cells/well) and incubated respectively for 24 h, 48 h, and 72 h at 37 °C with 5% CO2. […] The medium was removed, and cells were washed three times with PBS before incubation with MTT for 4 h at 37 °C. After the medium was removed, 100 μL of DMSO was added to the well for 10 min. The absorbance of the solution was measured at 570 nm by Multimode Reader (Bio Tek Synergy H1).

SW620 cells [2] = experiment: MTT cell-growth inhibition; type: cell-based, human; conditions: 24 h, 48 h, 72 h, 5-FU at 20 μg/mL
Experimental: as §1

SW620 cells [3] = experiment: Cell apoptosis, Annexin V/PI flow cytometry; type: cell-based, human; conditions: 30 μM, 48 h
Experimental: For the cell apoptosis detection, the cells in the different groups were washed three times with PBS and incubated with Annexin V-FITC solution for 10 min. Then, flow cytometry analysis was performed to detect the FITC and PI fluorescent intensity and report the percentage of the cell population within each plot quadrant.

SW620 cells [4] = experiment: Cell cycle analysis, propidium iodide flow cytometry; type: cell-based, human; conditions: 48 h
Experimental: For the cell cycle analysis, the cells in the different groups were washed three times with PBS and incubated with 1 mL of pre-cooled 70% alcohol at 4 °C for 24 h. After the cells were fixed, centrifuged at 300 × g for 5 min to collect the cells. 1 mL of cold PBS was added to re-suspend the cells and centrifuged at 300 × g for 5 min to remove the supernatant. 10 μL of RNaseA (50 ×) and 25 μL of propidium iodide (20 ×) in 0.5 mL of buffer were added. Finally, flow cytometry was used for cell cycle detection.

Kunming mice = type: in vivo; conditions: for Bodyweight End: end of 14 d observation; for Amount (start/end), survival: observed 14 d
Experimental: All animals were given a single oral gavage of 0.2 mL of different dosage forms, and their body weight was monitored every day. Meanwhile, the toxicity and mortality of all animals were observed every day. The conventional changes such as the cases of the diet, urine, and feces were recorded. On the 15th day after treatment, the blood of each group was collected from the heart and centrifuged at 1,000 × g for 10 min to collect serum. An automated biochemical analyzer was used to detect serum alanine aminotransferase (ALT), aspartate aminotransferase (AST), blood urea nitrogen (BUN), and creatinine (Cr). Meanwhile, the heart, liver, lung, and kidney were quickly excised, washed with normal saline, and weighed. The visceral index is estimated according to the following formula as Viscera Index (%) = Viscera Weight / Body Weight × 100. And then, all the tissues were fixed with 10% formalin and stained with hematoxylin & eosin (H&E) for pathological analysis.

[5] = Pharmacokinetics: butyric acid in plasma after gavage; type: in vivo, SW620 tumor-bearing BALB/C nude mice; conditions: gavage 0.366 g/kg
Experimental: SW620 tumor-bearing mice were randomly divided into 3 groups (n = 5). […] The blood was collected respectively from the heart at 0.25, 0.5, 1, 2, 3, 4, 6, 8, 12, 24, 36, 48, and 72 h after administration. The whole blood was quickly centrifuged at 2000 × g for 5 min, and the upper plasma was precisely aspirated. Then 0.35 mL of methanol was added, vortexed for 2 min, and centrifuged at 3350 × g for 15 min. The supernatant was used to detect butyric acid by HPLC [45]. The pharmacokinetic parameters were calculated by non-compartmental analysis using Drug Analysis System (DAS 2.1.1, Shanghai, China).

SW620 xenografts [6] = experiment: Pharmacodynamic evaluation, tumor growth inhibition; type: in vivo, BALB/C nude mice; conditions: every two days for 7 times, tumor weight on day 25 post-implantation
Experimental: Ten days after tumor transplantation, the SW620 tumor-bearing mice were randomly divided into 8 groups with 5 mice in each group when the tumors reached about 100 mm^3. The animals were weighed before treatment, and the measurement was continued every 2 days. The two axes of the tumor were measured with a vernier micrometer (L, longest axis; W, shortest axis). Tumor volume (mm^3) was calculated as ½ (L × W^2). Anti-tumor activity was evaluated by tumor growth inhibition (TGI), which was the mean tumor weight (MTW) of the treated group (TG) relative to the saline-treated control group (CG) on day 15, as calculated according to the formula [47]. […].

SW620 xenografts [7] = experiment: H&E pathological analysis of tumor tissue (necrosis rate); type: in vivo, nude mice; conditions: 15 days post-administration
Experimental: (§2) 15 days post-administration, all nude mice were sacrificed. The tumor tissues were collected, stained with H&E, and observed under an inverted microscope (400 ×). In addition, the TUNEL test was performed to detect cell apoptosis. Meanwhile, the expressions of both VEGFR-3 and Ki-67 were detected by ELISA.

SW620 xenografts [8] = experiment: TUNEL test of tumor tissue (apoptosis rate); type: in vivo, nude mice; conditions: 15 days post-administration
Experimental: as §2

VEGFR-3 = VEGFR-3 expression in tumor tissue; type: in vivo, nude mice; conditions: tumor tissue of SW620 xenografts
Experimental: as §2

[9] = Solubility observed during carrier synthesis; type: physicochemical; conditions: water
Ki-67 = Ki-67 expression in tumor tissue; type: in vivo, nude mice; conditions: tumor tissue of SW620 xenografts
Experimental: as §2

[10] = Kunming mice, before single oral gavage
[11] = Kunming mice, single oral gavage
[12] = serum, Kunming mice, 15th day after single oral gavage

Compound: 2-butyryl oxy-5-butylaminyl benzoic acid [BBA]
in vitro accumulative release of BBA [1]: 90%
cell-proliferation inhibition effect (CaCo-2 cells): some cell-proliferation inhibition effect
cell-proliferation inhibition effect (SW620 cells [2]): some cell-proliferation inhibition effect
apoptotic rate including early apoptosis and late apoptosis (SW620 cells [3]): 32.21% ± 8.26%
cell cycle arrest (SW620 cells [4]): mainly arrested at the G0/G1 phase
Bodyweight Start (Kunming mice; [10]): 18.48 ± 0.63 g
Bodyweight End (Kunming mice; [11]): 18.16 ± 0.63 g
Amount (start/end), survival (Kunming mice; [11]): 5/5
ALT (Kunming mice; [12]): 18.53 ± 0.65 U/L
AST (Kunming mice; [12]): 57.27 ± 10.20 U/L
BUN (Kunming mice; [12]): 6.32 ± 0.97 mmol/L
Cr (Kunming mice; [12]): 8.63 ± 1.96 µmol/L
AUC0-t [5]: 219.263 ± 5.360 µg·h/mL
CL [5]: 0.21267 ± 0.00447 mL/min/kg
Cmax [5]: 35923 ± 826 ng/mL
MRT0-t [5]: 4.769 ± 0.115 h
mean tumor inhibitory rate (SW620 xenografts [6]): 41.76% ± 7.56%
average necrosis rate (SW620 xenografts [7]): 20%
apoptosis rate (TUNEL) (SW620 xenografts [8]): 3.27%
VEGFR-3 positive area (VEGFR-3): significantly reduced

Compound: Nc1ccc(O)c(C(=O)O)c1 [5-ASA, 5-aminosalicylic acid]
Amount (start/end), survival (Kunming mice; [11]): 5/5
ALT (Kunming mice; mouse, in vivo, po): 23.20 ± 2.87 U/L
Average weight change rate (Kunming mice; mouse, in vivo, po): 4.63%
Bodyweight Start (Kunming mice; mouse, in vivo, po): 18.58 ± 0.41 g
Cr (Kunming mice; mouse, in vivo, po): 9.55 ± 0.36 µmol/L
mean tumor inhibitory rate (SW620 xenografts [6]): 31.33% ± 7.17%
average necrosis rate (SW620 xenografts [7]): 15%
apoptosis rate (TUNEL) (SW620 xenografts [8]): 2.44%
VEGFR-3 positive area (VEGFR-3): significantly reduced

solubility [9]: too poor
Compound: Nc1nc2ncc(CNc3ccc(C(=O)N[C@@H](CCC(=O)O)C(=O)O)cc3)nc2c(=O)[nH]1 [FA, Folic acid]

Compound: CCCC(=O)[O-].[Na+] [NaB, sodium butyrate]
Bodyweight Start (Kunming mice; [10]): 18.24 ± 0.53 g
Bodyweight End (Kunming mice; [11]): 19.14 ± 0.52 g
Amount (start/end), survival (Kunming mice; [11]): 5/5
Average weight change rate (Kunming mice; Kunming mice, single oral gavage, start to end): 4.93%
ALT (Kunming mice; [12]): 17.37 ± 1.77 U/L
AST (Kunming mice; [12]): 58.17 ± 4.75 U/L
BUN (Kunming mice; [12]): 8.60 ± 0.98 mmol/L
mean tumor inhibitory rate (SW620 xenografts [6]): 15.30% ± 5.61%
average necrosis rate (SW620 xenografts [7]): 10%
apoptosis rate (TUNEL) (SW620 xenografts [8]): 1.45%
VEGFR-3 positive area (VEGFR-3): significantly reduced

Compound: O=c1[nH]cc(F)c(=O)[nH]1 [5-FU, 5-fluorouracil]
cell-proliferation inhibition effect (CaCo-2 cells): drastically enhanced the cell proliferation inhibition rate compared with the BBA group
cell-proliferation inhibition effect (SW620 cells [2]): drastically enhanced the cell proliferation inhibition rate compared with the BBA group
Amount (start/end), survival (Kunming mice; [11]): 5/5
serum biochemical analysis indexes (Kunming mice; mouse, in vivo): AST and ALT increased significantly
ALT (Kunming mice; mouse, in vivo, po): 292.50 ± 6.60 U/L
AST (Kunming mice; mouse, in vivo, po): 254.00 ± 53.4 U/L
Average weight change rate (Kunming mice; mouse, in vivo, po): − 4.46* %
BUN (Kunming mice; mouse, in vivo, po): 6.92 ± 1.20 mmol/L
Bodyweight Start (Kunming mice; mouse, in vivo, po): 18.82 ± 0.61 g
Cr (Kunming mice; mouse, in vivo, po): 7.45 ± 2.91 µmol/L
Heart index (Kunming mice; mouse, in vivo, po): 0.81 ± 0.28%
Lung index (Kunming mice; mouse, in vivo, po): 0.85 ± 0.11%
decrease of average body weight (Kunming mice; mouse, in vivo, po): 4.46%
mean tumor inhibitory rate (SW620 xenografts [6]): 85.85% ± 2.89%
average necrosis rate (SW620 xenografts [7]): 50%
apoptosis rate (TUNEL) (SW620 xenografts [8]): 8.87%
VEGFR-3 positive area (VEGFR-3): significantly reduced
Ki-67 positive expression (Ki-67): significant decrease of the positive expression
